# Assay results published in patent US20250250308A1, “METHODS AND COMPOSITIONS WITH ANTIFUNGAL ACTIVITY” (priority 2022, published 2025).
# Entries after “also recorded” stand apart in the source; their conditions may differ.
# B1: EntV: 68 amino acid active C-terminal form of the E. faecalis bacteriocin EntV (SEQ ID NO: 14) (protein, listed as Enterococcus faecalis)
# chain: LGSCVANKIKDEFFAMISISAIVKAAQKKAWKELAVTVLRFAKANGLKTNAIIVAGQLALWAVQCGLS
# Columns and labels:
# [1] = system: Lactobacillus sakei ATCC 15521; test: Lactobacillus MIC assay (growth in liquid culture); type: cell-based
# Protocol: FIG. 8: EntV fragments have no inhibitory activity against Lactobacillus sakei. L. sakei was cultured in Lactobacilli MRS broth overnight and diluted 1/10 into fresh medium to which EntV and EntV fragments were added at various concentrations. After 24 hours of growth at 30° C., the OD625 readings were taken.
# Lactobacillus MIC Assay. For this assay, Lactobacillus sakei ATCC 15521 (Torriani et al., 1996) was used following the methodology as described with a few modifications (Chang et al., 2011). Briefly L. sakei was grown in Lactobacilli MRS broth (Difco, Detroit, MI, USA) for 18 h at 30° C. without agitation (Malheiros et al., 2015). Following adjustment to a concentration of 1×10^6 cells/ml, cells were diluted 1:10 into fresh MRS medium containing the indicated concentrations of EntV fragments. After 24 hours of growth at 30° C. without agitation, OD625 readings were taken using a BioTek Cytation5 plate reader. Readings of blanks (containing fresh MRS medium) were subtracted from sample wells. Three technical replicates were averaged, and the experiment was repeated three times.
# C. albicans [2] = test: Mouse OPC (oropharyngeal candidiasis) model; type: in vivo
# Protocol: Mouse OPC model. The efficacy of EntV fragments were tested in the OPC model as described (Graham et al., 2017; Solis and Filler, 2012). Mice were immunosuppressed by injecting 225 mg/kg cortisone acetate subcutaneously 1 d before inoculation, and subsequently on days 1 and 3 of the infection. Group size was 6-8. To prepare the inoculum, 1 ml of C. albicans (SC5314) overnight culture grown at 30° C. in YPD broth was washed twice in PBS before resuspension in sterile Hanks' balanced salt solution (HBSS) at a concentration of 1×10^6 cells/mL. Calcium alginate swabs were soaked in this inoculum for 5 minutes prior to inoculation. Mice were anesthetized using ketamine and xylazine and placed on pre-warmed isothermal pads and the swabs were placed sublingually for 75 min. Mice were given additional doses of ketamine (50 mg/kg), as necessary. After inoculation, mice were given drinking water with EntV fragments or DMSO (0.01%) in the drinking water ad libitum. Mice were euthanized at 5 d after inoculation, unless noted. The tongues were excised and cut in half laterally for tissue histology and assessment of fungal burden.
# For tissue histology the tongue sample was placed in 10% zinc-buffered formalin overnight and stored in 80% ethanol, before embedding in paraffin. For each tongue, 5 μm sections were prepared using a Leica microtome and stained using Periodic Acid-Schiff (PAS) stain. Epithelial invasion was measured from 40× images taken of the entire tissue section of each tongue half with the total area of epithelium and infected epithelium were measured using ImageJ (version 1.6). Measurements were totaled and expressed as a percentage of total infected epithelium relative to the entire epithelial area (Graham et al., 2017; Moyes et al., 2016).
# For examination of fungal burden, qPCR was used by amplifying a 269-bp fragment of the internal transcribed spacer 2 (ITS2) between the 5.8S and 28S ribosomal RNA genes of C. albicans (Graham et al., 2017; Khot et al., 2009). DNA was extracted from homogenized tongue tissue using the Yeast DNA Extraction Kit (Thermo Scientific) according to the protocol with minor modifications. The ITS2 fragment was amplified by qPCR was performed with a CFX96 Real-Time System with a C1000 Touch thermal cycler (BioRad). C. albicans gDNA was quantified using FastStart Universal SYBR Green master mix with ROX (Roche). To screen for contamination and background fluorescence during the qPCR amplification, no template controls were used.
# C. albicans [3] = test: C. albicans adhesion assay (polystyrene plates, crystal violet); type: cell-based; conditions: vs. DMSO control
# Protocol: This, like many manifestations of Candida infections, requires adhesion of the fungal cell to surfaces, both biotic and abiotic, whereupon biofilm structures are commonly formed. A model in which binding to plastic surfaces is a measure of the initial stage of biofilm differentiation. In this assay, cells are incubated in polystyrene 96 well plates with the peptides in PBS for one hour and then overlaid with artificial saliva media for 90 minutes before washing and quantitation of adhesion using crystal violet.
# C. albicans adhesion assays. The C. albicans adhesion assays were performed using similar techniques as described previously (Gulati et al., 2018). C. albicans strains were grown in YPD broth for 18 h at 30° C. with agitation and then sub-cultured for 4 h in the same conditions. Cells were then collected by centrifugation, washed twice in PBS, and adjusted to a concentration of 1×10^7 cells/ml (measured with Countess II, Life Technologies) in PBS treated with the indicated concentrations of test compounds. The cell suspension was incubated for 1 h at 30° C. with agitation. […]
# The adhered cell layer was then stained for 20 minutes with 40 μl of 0.08% crystal violet solution (diluted, Sigma). […] The optical density at 595 nm (OD595) was measured using a Synergy H1 plate reader (BioTek) with Gen5 version 3.08 software (BioTek).
# [4] = 10 nM and 1 nM in drinking water
# [5] = 100 nM in drinking water for 5 days following inoculation
# [6] = 100 nM starting at day three, sacrificed on day five
molecule,measurement,setting,value
VAGQLALWAVQC [12aa],Antibacterial (bacteriocin) activity against L. sakei,"[1]; various concentrations, 24 hours",no longer had bacteriocin activity
same,Epithelial invasion,C. albicans [2]; [4],the reduction in invasion remains dramatic
same,Fungal burden on the tongue,C. albicans [2]; [4],only a slight reduction in fungal burden on the tongue
same,Fungal burden,C. albicans [2]; 50 nM in drinking water,loss of efficacy in terms of fungal burden
same,Hyphal invasion,C. albicans [2]; 50 nM in drinking water,still a significant lowering of hyphal invasion
same,Hyphal invasion relative to fluconazole,C. albicans [2]; 100 nM and 500 nM vs. 4 μg/mL fluconazole,slightly less prevalent
same,Fungal burden in the tongue (C. albicans DNA by qPCR),C. albicans [2]; [5],equally effective
same,Hyphal (epithelial) invasion of the tongue,"C. albicans [2]; 100 nM in drinking water for 5 days following inoculation, listed as 12-mer",at least as effective as the full length EntV; also recorded: most reduced
same,"Fungal burden, treatment of established infection",C. albicans [2]; [6],significantly less fungal burden compared to both groups of untreated animals
same,"Hyphal invasion, treatment of established infection",C. albicans [2]; [6],The same patterns were observed
same,Fungal burden relative to fluconazole,"C. albicans [2]; 100 nM vs. 4 μg/mL fluconazole, day 5",even more effective at reducing fungal burden than 4 μg/mL fluconazole
same,Adhesion of C. albicans to polystyrene,C. albicans [3],as effective in protecting against C. albicans infection in the worm model and inhibiting surface adhesion as full-length EntV
B1,Lowest concentration abrogating growth of L. sakei,"[1]; liquid culture, 24 hours at 30° C., OD625",≤ 10 nM
same,Fungal burden in the tongue (C. albicans DNA by qPCR),C. albicans [2]; [5],significantly reduced the fungal burden
same,Adhesion of C. albicans to polystyrene,C. albicans [3],significantly reduced adhesion to polystyrene
